In patent publication US20240368163A1, “COMPOUNDS AND METHODS FOR MODULATING SPLICING” (REMIX THERAPEUTICS INC., priority 2021, published 2024):
Read-outs that look alike come from different tables or passages of the source.

Assays:
Assay type in all cases: cell-based, human
Target C [1] = test: Splicing RT-qPCR panel, Target C canonical junction (CJ) mRNA; conditions: Homo sapiens, read-out: Target C IC50 (decrease in CJ mRNA levels)
Procedure, shortened: (§1)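 Cells: A673 (DMEM/10% FBS) or K562 (IMDM/10% FBS). Dose: 11-pt 3-fold, top 10 uM final, ≤0.25% DMSO, 24 h, 37 °C. Readout: RT-qPCR of CJ/AJ exon junctions, ΔΔCt vs housekeeper and DMSO, RQ to % response.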

HTT [2] = test: Splicing RT-qPCR assay, HTT mRNA canonical junction (CJ) and alternative junction (AJ); conditions: Homo sapiens; for AC50: increase in AJ mRNA
Procedure, shortened: as §1

MYB [3] = test: Splicing RT-qPCR assay, MYB mRNA canonical junction (CJ) and alternative junction (AJ); conditions: Homo sapiens; for AC50: increase in AJ mRNA
Procedure, shortened: as §1

MYB [4] = test: HiBiT protein abundance assay, MYB; conditions: Homo sapiens, K562, 24 h, modified K562 cells
Procedure, shortened: (§2)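 Protein abundance measured by Nano-Glo HiBiT lytic luminescence after 24 h compound exposure of modified K562 lines, 10000 cells/well, top final dose 10 μM in 3-fold steps. Four-parameter fit of control-normalised response gives concentration reducing abundance to 50% of untreated.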

HTT [5] = test: HiBiT protein abundance assay, HTT; conditions: Homo sapiens, K562, 24 h, modified K562 cells
Procedure, shortened: as §2

Target C [6] = test: HiBiT protein abundance assay, Target C; conditions: Homo sapiens, K562, 24 h, modified K562 cells
Procedure, shortened: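 Target protein levels in engineered HiBiT-tagged cells were read by lytic luminescence after 24 h compound exposure (10000 cells/well, 10 μM top final, 3-fold steps, ≤0.25% DMSO). Unmodified K562 served as baseline; four-parameter regression gave concentration reducing abundance to 50%.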

SMN2 = test: Splicing RT-qPCR panel, SMN2 canonical junction (CJ) mRNA; conditions: Homo sapiens, read-out: SMN2 IC50 (decrease in CJ mRNA levels)
Procedure, shortened: as §1

[7] = RT-qPCR panel, canonical junction mRNA, compound concentration having 50% response in CJ decrease
[8] = 24 h, decrease in CJ mRNA, A673 or K562 cells, 24 hours treatment, RT-qPCR, read-out: HTT CJ IC50
[9] = 24 h, A673 or K562 cells, 24 hours treatment, RT-qPCR
[10] = RT-qPCR panel, canonical junction mRNA, compound concentration having 50% response in CJ decrease, read-out: HTT IC50 (decrease in CJ mRNA levels)
[11] = 24 h, decrease in CJ mRNA, A673 or K562 cells, 24 hours treatment, RT-qPCR, read-out: MYB CJ IC50
[12] = RT-qPCR panel, canonical junction mRNA, compound concentration having 50% response in CJ decrease, read-out: MYB IC50 (decrease in CJ mRNA levels)
[13] = gene panel, CJ qPCR, protocol of Example 142

IC50 (Target C [1]; [7])	IC50 (HTT [2]; [10])	IC50 (MYB [3]; [12])	IC50 (MYB [4]; Table 13A)	IC50 (HTT [5]; Table 13A)	IC50 (Target C [6]; Table 13A)	IC50 (SMN2; [7])	IC50 (Target C [1]; [13])	IC50 (HTT [2]; gene panel, CJ qPCR, protocol of Example 142, read-out: HTT IC50 (decrease in CJ mRNA levels))	IC50 (MYB [3]; gene panel, CJ qPCR, protocol of Example 142, read-out: MYB IC50 (decrease in CJ mRNA levels))	IC50 (MYB [4]; Table 13B)	IC50 (HTT [5]; Table 13B)	IC50 (Target C [6]; Table 13B)	IC50 (SMN2; [13])	SMILES	IC50 (HTT [2]; [8])	AC50 (HTT [2]; [9])	IC50 (MYB [3]; [11])	AC50 (MYB [3]; [9])
1000 to 10000 nM	1000 to 10000 nM	1000 to 10000 nM	1000 to 10000 nM	1000 to 10000 nM	1000 to 10000 nM	1000 to 10000 nM								c1nc2c(-c3cn[nH]c3)ccc(-c3cnc(N4CCN[C@H](C5CC5)C4)nn3)c2s1 [Compound 451]				
1000 to 10000 nM	100 to 1000 nM	1000 to 10000 nM	1000 to 10000 nM	100 to 1000 nM	1000 to 10000 nM	< 100 nM								CC(C)(C)[C@@H]1CN(c2ncc(-c3ccc(-n4cccn4)c4[nH]ncc34)nn2)CCN1 [Compound 582]				
1000 to 10000 nM	100 to 1000 nM	1000 to 10000 nM	1000 to 10000 nM	100 to 1000 nM	1000 to 10000 nM	1000 to 10000 nM								CC(C)(C)NC1CCN(c2ncc(-c3ccc(-c4cn[nH]c4)c4ncsc34)nn2)C1 (centres unmarked) [Compound 569]				
> 10000 nM	100 to 1000 nM	> 10000 nM	1000 to 10000 nM	1000 to 10000 nM	1000 to 10000 nM	100 to 1000 nM								CNC1CCN(c2ncc(-c3ccc(-c4cn[nH]c4)c4ncsc34)nn2)C1 (centres unmarked) [Compound 412, N-methyl-1-[6-[4-(1H-pyrazol-4-yl)-1,3-benzothiazol-7-yl]-1,2,4-triazin-3-yl]pyrrolidin-3-amine]	100 to 1000 nM	1000 to 10000 nM	> 10000 nM	> 10000 nM
100 to 1000 nM	100 to 1000 nM	100 to 1000 nM	1000 to 10000 nM	100 to 1000 nM	100 to 1000 nM	100 to 1000 nM								CC(C)(C)C1CN(c2ncc(-c3ccc(-c4cn[nH]c4)c4ncsc34)nn2)CCN1 (centres unmarked) [Compound 570]				
							> 10000 nM	> 10000 nM	> 10000 nM	> 10000 nM	1000 to 10000 nM	1000 to 10000 nM	> 10000 nM	COc1nc(-c2ccc(OC3CC(C)(C)NC(C)(C)C3)nc2)ccc1-n1cccn1 [Compound 991]				
> 10000 nM	> 10000 nM	> 10000 nM	1000 to 10000 nM	1000 to 10000 nM	1000 to 10000 nM	1000 to 10000 nM								c1n[nH]cc1-c1ccc(-c2ccc(N3CCNCC3)nn2)c2[nH]ncc12 [Compound 241]	> 10000 nM	1000 to 10000 nM	> 10000 nM	1000 to 10000 nM
1000 to 10000 nM	100 to 1000 nM	100 to 1000 nM	100 to 1000 nM	100 to 1000 nM	100 to 1000 nM	< 100 nM								Cn1ncc(-c2ccc(-c3ccc(OC4CC(C)(C)NC(C)(C)C4)nn3)c3[nH]ncc23)n1 [Compound 316]	100 to 1000 nM	100 to 1000 nM	100 to 1000 nM	100 to 1000 nM

SMILES	IC50 (Target C [1]; [7])	IC50 (HTT [2]; [10])	IC50 (MYB [3]; [12])	IC50 (MYB [4]; Table 13A)	IC50 (HTT [5]; Table 13A)	IC50 (Target C [6]; Table 13A)	IC50 (SMN2; [7])	IC50 (Target C [1]; [13])	IC50 (HTT [2]; gene panel, CJ qPCR, protocol of Example 142, read-out: HTT IC50 (decrease in CJ mRNA levels))	IC50 (MYB [3]; gene panel, CJ qPCR, protocol of Example 142, read-out: MYB IC50 (decrease in CJ mRNA levels))	IC50 (MYB [4]; Table 13B)	IC50 (HTT [5]; Table 13B)	IC50 (Target C [6]; Table 13B)	IC50 (SMN2; [13])	IC50 (HTT [2]; [8])	AC50 (HTT [2]; [9])	IC50 (MYB [3]; [11])	AC50 (MYB [3]; [9])
CN(c1ccc(-c2ccc(-c3cnn(CC4CC4)n3)c3cn[nH]c23)nn1)[C@@H]1C[C@H]2CC[C@@H](C1)N2 [Compound 318, N-(6-{4-[2-(cyclopropylmethyl)-1,2,3-triazol-4-yl]-1H-indazol-7-yl}pyridazin-3-yl)-N-methyl-8-azabicyclo[3.2.1]octan-3-amine]	1000 to 10000 nM	1000 to 10000 nM	1000 to 10000 nM	1000 to 10000 nM	1000 to 10000 nM	1000 to 10000 nM	1000 to 10000 nM								1000 to 10000 nM	1000 to 10000 nM	1000 to 10000 nM	1000 to 10000 nM
CN(c1ccc(-c2ccc(-c3ccc(=O)n(C)c3)c3cn[nH]c23)nn1)[C@@H]1C[C@H]2CC[C@@H](C1)N2 [Compound 365, 5-(7-{6-[(exo)-8-azabicyclo[3.2.1]octan-3-yl(methyl)amino]pyridazin-3-yl}-1H-indazol-4-yl)-1-methylpyridin-2-one]	1000 to 10000 nM	1000 to 10000 nM	> 10000 nM	1000 to 10000 nM	1000 to 10000 nM	1000 to 10000 nM	1000 to 10000 nM								1000 to 10000 nM	1000 to 10000 nM	> 10000 nM	> 10000 nM
c1nc2c(-c3cn[nH]c3)ccc(-c3ccc(N[C@H]4C[C@H]5COC[C@@H](C4)N5)nn3)c2s1 [Compound 353]	1000 to 10000 nM	> 10000 nM	1000 to 10000 nM	1000 to 10000 nM	1000 to 10000 nM	> 10000 nM	1000 to 10000 nM								> 10000 nM	1000 to 10000 nM	1000 to 10000 nM	> 10000 nM
